PubChem BioAssay (NCI)
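Briefly, cells in 96-well plates were exposed to five compound concentrations for 48 h, and endpoints were estimated by linear interpolation. Definition used: TGI = concentration required for complete inhibition of growth.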

Key:
Test in all cases: inhibition of tumour cell growth, NCI panel, 48 h
RXF-631 renal = system: RXF-631 renal
LOX IMVI melanoma = system: LOX IMVI melanoma
U251 CNS = system: U251 CNS
CCRF-CEM leukemia = system: CCRF-CEM leukemia
HOP-18 NSCLC = system: HOP-18 NSCLC
NCI-H226 lung = system: NCI-H226 lung
KM12 colon = system: KM12 colon
M19-MEL melanoma = system: M19-MEL melanoma
SK-MEL-28 melanoma = system: SK-MEL-28 melanoma
SF-268 CNS = system: SF-268 CNS
TK-10 renal = system: TK-10 renal
OVCAR-8 ovarian = system: OVCAR-8 ovarian
HL-60(TB) leukemia = system: HL-60(TB) leukemia
IGROV1 ovarian = system: IGROV1 ovarian
786-0 renal = system: 786-0 renal
NCI-H522 lung = system: NCI-H522 lung
SNB-19 CNS = system: SNB-19 CNS
RPMI-8226 leukemia = system: RPMI-8226 leukemia
SK-MEL-2 melanoma = system: SK-MEL-2 melanoma
DMS 114 small cell lung = system: DMS 114 small cell lung
XF 498 CNS = system: XF 498 CNS
K-562 leukemia = system: K-562 leukemia
MALME-3M melanoma = system: MALME-3M melanoma
NCI-H460 lung = system: NCI-H460 lung
OVCAR-3 ovarian = system: OVCAR-3 ovarian
NCI-H23 lung = system: NCI-H23 lung
A549 NSCLC = system: A549 NSCLC
SR leukemia = system: SR leukemia
SN12C renal = system: SN12C renal
HCC-2998 colon = system: HCC-2998 colon
SNB-75 CNS = system: SNB-75 CNS
UACC-62 melanoma = system: UACC-62 melanoma
COLO 205 colon = system: COLO 205 colon
M14 melanoma = system: M14 melanoma
DMS 273 small cell lung = system: DMS 273 small cell lung
OVCAR-5 ovarian = system: OVCAR-5 ovarian
DLD-1 colon = system: DLD-1 colon
ACHN renal = system: ACHN renal
SF-295 CNS = system: SF-295 CNS
CAKI-1 renal = system: CAKI-1 renal
HCT-15 colon = system: HCT-15 colon
EKVX NSCLC = system: EKVX NSCLC
SNB-78 CNS = system: SNB-78 CNS
SK-MEL-5 melanoma = system: SK-MEL-5 melanoma
OVCAR-4 ovarian = system: OVCAR-4 ovarian
A498 renal = system: A498 renal
HCT-116 colon = system: HCT-116 colon
HT29 colon = system: HT29 colon
UACC-257 melanoma = system: UACC-257 melanoma
HOP-92 NSCLC = system: HOP-92 NSCLC
SW-620 colon = system: SW-620 colon
SK-OV-3 ovarian = system: SK-OV-3 ovarian
SF-539 CNS = system: SF-539 CNS
MOLT-4 leukemia = system: MOLT-4 leukemia
HOP-62 NSCLC = system: HOP-62 NSCLC
UO-31 renal = system: UO-31 renal
LXFL 529 NSCLC = system: LXFL 529 NSCLC
KM20L2 colon = system: KM20L2 colon
RXF 393 renal = system: RXF 393 renal

Cn1ncc2c(Nc3ccc(Cl)cc3)c3ccccc3nc21
TGI (RXF-631 renal): 33.5 µM
TGI (LOX IMVI melanoma): 32.7 µM
TGI (U251 CNS): 29.3 µM
TGI (CCRF-CEM leukemia): 56.7 µM
TGI (HOP-18 NSCLC): 69.5 µM
TGI (NCI-H226 lung): 35.4 µM
TGI (KM12 colon): 40.9 µM
TGI (M19-MEL melanoma): 37.2 µM
TGI (SK-MEL-28 melanoma): 29.7 µM
TGI (SF-268 CNS): 51.5 µM
TGI (TK-10 renal): 77.3 µM
TGI (OVCAR-8 ovarian): 30.3 µM
TGI (HL-60(TB) leukemia): 73.6 µM
TGI (IGROV1 ovarian): 54.7 µM
TGI (786-0 renal): 32.4 µM
TGI (NCI-H522 lung): 37.2 µM
TGI (SNB-19 CNS): 43.9 µM
TGI (RPMI-8226 leukemia): 93.9 µM
TGI (SK-MEL-2 melanoma): 33.7 µM
TGI (DMS 114 small cell lung): 34.5 µM
TGI (XF 498 CNS): > 10 µM
TGI (K-562 leukemia): 56.7 µM
TGI (MALME-3M melanoma): 39.7 µM
TGI (NCI-H460 lung): 52.7 µM
TGI (OVCAR-3 ovarian): 46.2 µM
TGI (NCI-H23 lung): > 10 µM
TGI (A549 NSCLC): 43.2 µM
TGI (SR leukemia): > 100 µM
TGI (SN12C renal): 58.3 µM
TGI (HCC-2998 colon): 39.7 µM
TGI (SNB-75 CNS): 29.2 µM
TGI (UACC-62 melanoma): 31.6 µM
TGI (COLO 205 colon): 42.4 µM
TGI (M14 melanoma): 28.3 µM
TGI (DMS 273 small cell lung): 35.5 µM
TGI (OVCAR-5 ovarian): 47.5 µM
TGI (DLD-1 colon): 30.3 µM
TGI (ACHN renal): 55.9 µM
TGI (SF-295 CNS): 36 µM
TGI (CAKI-1 renal): 80.6 µM
TGI (HCT-15 colon): 40 µM
TGI (EKVX NSCLC): > 10 µM
TGI (SNB-78 CNS): 74.6 µM
TGI (SK-MEL-5 melanoma): 26.7 µM
TGI (OVCAR-4 ovarian): 29.2 µM
TGI (A498 renal): 29.7 µM
TGI (HCT-116 colon): 26.4 µM
TGI (HT29 colon): 27.1 µM
TGI (UACC-257 melanoma): 31.7 µM
TGI (HOP-92 NSCLC): 39.1 µM
TGI (SW-620 colon): 39.1 µM
TGI (SK-OV-3 ovarian): 54.9 µM
TGI (SF-539 CNS): 30.1 µM
TGI (MOLT-4 leukemia): 63.2 µM
TGI (HOP-62 NSCLC): 31.9 µM
TGI (UO-31 renal): > 10 µM
TGI (LXFL 529 NSCLC): 34.7 µM

CCOc1ccc2nc(NC(=O)C(=O)C(C#N)CC(C)(C)C=O)sc2c1 (stereo not given)
TGI (RXF-631 renal): > 100 µM
TGI (LOX IMVI melanoma): > 100 µM
TGI (U251 CNS): > 100 µM
TGI (CCRF-CEM leukemia): 63.1 µM
TGI (HOP-18 NSCLC): > 100 µM
TGI (NCI-H226 lung): > 100 µM
TGI (KM12 colon): > 100 µM
TGI (M19-MEL melanoma): > 100 µM
TGI (SK-MEL-28 melanoma): > 100 µM
TGI (SF-268 CNS): > 100 µM
TGI (TK-10 renal): > 100 µM
TGI (OVCAR-8 ovarian): > 100 µM
TGI (HL-60(TB) leukemia): > 100 µM
TGI (IGROV1 ovarian): > 100 µM
TGI (786-0 renal): > 100 µM
TGI (NCI-H522 lung): > 100 µM
TGI (SNB-19 CNS): > 100 µM
TGI (RPMI-8226 leukemia): > 100 µM
TGI (SK-MEL-2 melanoma): > 100 µM
TGI (DMS 114 small cell lung): > 100 µM
TGI (XF 498 CNS): > 100 µM
TGI (K-562 leukemia): > 100 µM
TGI (MALME-3M melanoma): > 100 µM
TGI (NCI-H460 lung): > 100 µM
TGI (OVCAR-3 ovarian): > 100 µM
TGI (KM20L2 colon): > 100 µM
TGI (NCI-H23 lung): > 100 µM
TGI (A549 NSCLC): > 100 µM
TGI (SR leukemia): 46 µM
TGI (SN12C renal): > 100 µM
TGI (HCC-2998 colon): > 100 µM
TGI (SNB-75 CNS): > 100 µM
TGI (UACC-62 melanoma): > 100 µM
TGI (COLO 205 colon): > 100 µM
TGI (M14 melanoma): > 100 µM
TGI (DMS 273 small cell lung): 51.5 µM
TGI (OVCAR-5 ovarian): > 100 µM
TGI (DLD-1 colon): > 100 µM
TGI (ACHN renal): > 100 µM
TGI (SF-295 CNS): > 100 µM
TGI (CAKI-1 renal): > 100 µM
TGI (RXF 393 renal): > 100 µM
TGI (HCT-15 colon): > 100 µM
TGI (EKVX NSCLC): > 100 µM
TGI (SNB-78 CNS): > 100 µM
TGI (SK-MEL-5 melanoma): > 100 µM
TGI (OVCAR-4 ovarian): > 100 µM
TGI (A498 renal): > 100 µM
TGI (HCT-116 colon): > 100 µM
TGI (HT29 colon): > 100 µM
TGI (UACC-257 melanoma): > 100 µM
TGI (HOP-92 NSCLC): > 100 µM
TGI (SK-OV-3 ovarian): > 100 µM
TGI (SF-539 CNS): > 100 µM
TGI (MOLT-4 leukemia): > 100 µM
TGI (HOP-62 NSCLC): > 100 µM
TGI (UO-31 renal): > 100 µM
TGI (LXFL 529 NSCLC): > 100 µM
